Experimental data from EP2951180B1, “2,6,7,8 SUBSTITUTED PURINES AS HDM2 INHIBITORS” (Merck Sharp & Dohme Corp., priority 2013, dated 2014).

These molecules were tested against T1, HDM2 (Homo sapiens, UniProt Q00987) (assay: FRET assay (HDM2 inhibition; method not described in this part)). Conditions: Table 1.
T1 construct: Thioredoxin (N); made in house; host or cells: E. coli strain BL21(DE3)Rosetta
T1 sequence (Q00987 17-125): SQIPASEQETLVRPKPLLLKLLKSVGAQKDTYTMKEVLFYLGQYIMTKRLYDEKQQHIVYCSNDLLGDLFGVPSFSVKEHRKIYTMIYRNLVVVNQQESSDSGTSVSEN
Type: binding
In the case of `Cc1ccc(C)c(-c2nc3nc(C(=O)O)nc(N[C@H](C)C4CCC4)c3n2Cc2ccc(C(F)(F)F)cc2)c1` [Example 1.99, 6-{[(1R)-1-cyclobutylethyl]amino}-8-(2,5-dimethylphenyl)-7-[4-(trifluoromethyl)benzyl]-7H-purine-2-carboxylic acid], the IC50 is reported as 14.9 nM.
`C[C@@H](Nc1nc(C(=O)O)nc2nc(-c3ccc(OC(F)F)cc3)n(Cc3ccc(C(F)(F)F)cc3)c12)C1CCC1` [Example 1.100, 6-{[(1R)-1-cyclobutylethyl]amino}-8-[4-(difluoromethoxy)phenyl]-7-[4-(trifluoromethyl)benzyl]-7H-purine-2-carboxylic acid] was tested, and the IC50 was 51.8 nM.
In the case of `CC(O)c1ccc(-c2nc3nc(C(=O)O)nc(N[C@H](C)C4CCC4)c3n2Cc2ccc(C(F)(F)F)cc2)cc1` (stereo partly drawn) [Example 1.101, 6-{[(1R)-1-cyclobutylethyl]amino}-8-[4-(1-hydroxyethyl)phenyl]-7-[4-(trifluoromethyl)benzyl]-7H-purine-2-carboxylic acid], the IC50 is reported as 34.2 nM.
With `Cc1ccc(-c2nc3nc(C(=O)O)nc(N[C@H](C)C4CCC4)c3n2Cc2ccc(C(F)(F)F)cc2)cc1F` [Example 1.102, 6-{[(1R)-1-cyclobutylethyl]amino}-8-(3-fluoro-4-methylphenyl)-7-[4-(trifluoromethyl)benzyl]-7H-purine-2-carboxylic acid] the IC50 was 20.3 nM.
`Cc1ccc(F)cc1-c1nc2nc(C(=O)O)nc(N[C@H](C)C3CCC3)c2n1Cc1ccc(C(F)(F)F)cc1` [Example 1.103, 6-{[(1R)-1-cyclobutylethyl]amino}-8-(5-fluoro-2-methylphenyl)-7-[4-(trifluoromethyl)benzyl]-7H-purine-2-carboxylic acid] was tested, and the IC50 was 10.8 nM.
`COc1ccc(-c2nc3nc(C(=O)O)nc(N[C@H](C)C4CCC4)c3n2Cc2ccc(C(F)(F)F)cc2)cc1F` [Example 1.104, 6-{[(1R)-1-cyclobutylethyl]amino}-8-(3-fluoro-4-methoxyphenyl)-7-[4-(trifluoromethyl)benzyl]-7H-purine-2-carboxylic acid] was tested, and the IC50 was 17.4 nM.
`COc1ccc(-c2nc3nc(C(=O)O)nc(N[C@H](C)C4CCC4)c3n2Cc2ccc(C(F)(F)F)cc2)cc1C` [Example 1.105, 6-{[(1R)-1-cyclobutylethyl]amino}-8-(4-methoxy-3-methylphenyl)-7-[4-(trifluoromethyl)benzyl]-7H-purine-2-carboxylic acid] gave an IC50 of 16.5 nM.
For `C[C@@H](Nc1nc(C(=O)O)nc2nc(-c3ccc4nccnc4c3)n(Cc3ccc(C(F)(F)F)cc3)c12)C1CCC1` [Example 1.106, 6-{[(1R)-1-cyclobutylethyl]amino}-8-quinoxalin-6-yl-7-[4-(trifluoromethyl)benzyl]-7H-purine-2-carboxylic acid], the IC50 was 23.5 nM.
`C[C@@H](Nc1nc(C(=O)O)nc2nc(-c3cccc(-n4cccc4)c3)n(Cc3ccc(C(F)(F)F)cc3)c12)C1CCC1` [Example 1.107, 6-{[(1R)-1-cyclobutylethyl]amino}-8-[3-(1H-pyrrol-1-yl)phenyl]-7-[4-(trifluoromethyl)benzyl]-7H-purine-2-carboxylic acid] was tested, and the IC50 was 34.8 nM.
`C[C@@H](Nc1nc(C(=O)O)nc2nc(-c3ccc4c(ccn4C)c3)n(Cc3ccc(C(F)(F)F)cc3)c12)C1CCC1` [Example 1.108, 6-{[(1R)-1-cyclobutylethyl]amino}-8-(1-methyl-1H-indol-5-yl)-7-[4-(trifluoromethyl)benzyl]-7H-purine-2-carboxylic acid] showed an IC50 of 60.9 nM.
`C[C@@H](Nc1nc(C(=O)O)nc2nc(-c3ccc(-c4ccccc4)cc3)n(Cc3ccc(C(F)(F)F)cc3)c12)C1CCC1` [Example 1.109, 8-biphenyl-4-yl-6-{[(1R)-1-cyclobutylethyl]amino}-7-[4-(trifluoromethyl)benzyl]-7H-purine-2-carboxylic acid] was tested, and the IC50 was 473 nM.
Work on `C[C@@H](Nc1nc(C(=O)O)nc2nc(-c3ccc(C4CCCCC4)cc3)n(Cc3ccc(C(F)(F)F)cc3)c12)C1CCC1` [Example 1.110, 6-{[(1R)-1-cyclobutylethyl]amino}-8-(4-cyclohexylphenyl)-7-[4-(trifluoromethyl)benzyl]-7H-purine-2-carboxylic acid] yielded an IC50 of 3700 nM.
In the case of `Cc1ccc2cc(-c3nc4nc(C(=O)O)nc(N[C@H](C)C5CCC5)c4n3Cc3ccc(C(F)(F)F)cc3)ccc2n1` [Example 1.111, 6-{[(1R)-1-cyclobutylethyl]amino}-8-(2-methylquinolin-6-yl)-7-[4-(trifluoromethyl)benzyl]-7H-purine-2-carboxylic acid], the IC50 is reported as 128 nM.
`C[C@@H](Nc1nc(C(=O)O)nc2nc(-c3ccc(-c4ccccc4)c(F)c3)n(Cc3ccc(C(F)(F)F)cc3)c12)C1CCC1` [Example 1.112, 6-{[(1R)-1-cyclobutylethyl]amino}-8-(2-fluorobiphenyl-4-yl)-7-[4-(trifluoromethyl)benzyl]-7H-purine-2-carboxylic acid] gave an IC50 of 344 nM.
With `C[C@@H](Nc1nc(C(=O)O)nc2nc(-c3ccc(N(C)C)cc3)n(Cc3ccc(C(F)(F)F)cc3)c12)C1CCC1` [Example 1.113, 6-{[(1R)-1-cyclobutylethyl]amino}-8-[4-(dimethylamino)phenyl]-7-[4-(trifluoromethyl)benzyl]-7H-purine-2-carboxylic acid] the IC50 was 716 nM.
`C[C@@H](Nc1nc(C(=O)O)nc2nc(-c3ccc(C(C)(C)C)cc3)n(Cc3ccc(C(F)(F)F)cc3)c12)C1CCC1` [Example 1.114, 8-(4-tert-butylphenyl)-6-{[(1R)-1-cyclobutylethyl]amino}-7-[4-(trifluoromethyl)benzyl]-7H-purine-2-carboxylic acid] gave an IC50 of 393 nM.
For `C[C@@H](Nc1nc(C(=O)O)nc2nc(-c3ccc(Cl)c(C(F)(F)F)c3)n(Cc3ccc(C(F)(F)F)cc3)c12)C1CCC1` [Example 1.115, 8-[4-chloro-3-(trifluoromethyl)phenyl]-6-{[(1R)-1-cyclobutylethyl]amino}-7-[4-(trifluoromethyl)benzyl]-7H-purine-2-carboxylic acid], the IC50 was 17.3 nM.
In the case of `C[C@@H](Nc1nc(C(=O)O)nc2nc(-c3ccc(C(=O)C4CC4)cc3)n(Cc3ccc(C(F)(F)F)cc3)c12)C1CCC1` [Example 1.116, 6-{[(1R)-1-cyclobutylethyl]amino}-8-[4-(cyclopropylcarbonyl)phenyl]-7-[4-(trifluoromethyl)benzyl] - 7H-purine-2-carboxylic acid], the IC50 is reported as 66.3 nM.
With `C[C@@H](Nc1nc(C(=O)O)nc2nc(-c3ccc4occc4c3)n(Cc3ccc(C(F)(F)F)cc3)c12)C1CCC1` [Example 1.117, 8-(1-benzofuran-5-yl)-6-{[(1R)-1-cyclobutylethyl]amino}-7-[4-(trifluoromethyl)benzyl]-7H-purine-2-carboxylic acid] the IC50 was 16.7 nM.
Work on `Cc1cc(-c2nc3nc(C(=O)O)nc(N[C@H](C)C4CC4)c3n2Cc2ccc(C(F)(F)F)cc2)ccn1` [Example 1.118, 6-{[(1R)-1-cyclopropylethyl]amino} -8-(2-methylpyridin-4-yl)-7-[4-(trifluoromethyl)benzyl]-7H-purine-2-carboxylic acid] yielded an IC50 of 1370 nM.
`COc1ccc(C)cc1-c1nc2nc(C(=O)O)nc(N[C@H](C)C3CCC3)c2n1Cc1ccc(C(F)(F)F)cc1` [Example 1.119, 6-{[(1R)-1-cyclobutylethyl]amino}-8-(2-methoxy-5-methylphenyl)-7-[4-(trifluoromethyl)benzyl]-7H-purine-2-carboxylic acid] gave an IC50 of 9.97 nM.
For `Cc1ccc(Cl)c(-c2nc3nc(C(=O)O)nc(N[C@H](C)C4CCC4)c3n2Cc2ccc(C(F)(F)F)cc2)c1` [Example 1.120, 8-(2-chloro-5-methylphenyl)-6-{[(1R)-1-cyclobutylethyl]amino}-7-[4-(trifluoromethyl)benzyl] - 7H-purine-2-carboxylic acid], the IC50 was 10.4 nM.
`C[C@@H](Nc1nc(C(=O)O)nc2nc(-c3ccc4c(c3)CCO4)n(Cc3ccc(C(F)(F)F)cc3)c12)C1CCC1` [Example 1.121, 6-{[(1R)-1-cyclobutylethyl]amino}-8-(2,3-dihydro-1-benzofuran-5-yl)-7-[4-(trifluoromethyl)benzyl]-7H-purine-2-carboxylic acid] gave an IC50 of 7.81 nM.
Molecule `C[C@@H](Nc1nc(C(=O)O)nc2nc(-c3cccc(C(F)(F)F)n3)n(Cc3ccc(C(F)(F)F)cc3)c12)C1CCC1` [Example 1.122, 6-{[(1R)-1-cyclobutylethyl]amino}-7-[4-(trifluoromethyl)benzyl]-8-[6-(trifluoromethyl)pyridin-2-yl]-7H-purine-2-carboxylic acid] has an IC50 of 21.2 nM.
Work on `COc1cc(C)cc(-c2nc3nc(C(=O)O)nc(N[C@H](C)C4CCC4)c3n2Cc2ccc(C(F)(F)F)cc2)c1` [Example 1.123, 6-{[(1R)-1-cyclobutylethyl]amino}-8-(3-methoxy-5-methylphenyl)-7-[4-(trifluoromethyl)benzyl]-7H-purine-2-carboxylic acid] yielded an IC50 of 53.6 nM.
With `COc1cc(-c2nc3nc(C(=O)O)nc(N[C@H](C)C4CCC4)c3n2Cc2ccc(C(F)(F)F)cc2)ccc1Cl` [Example 1.124, 8-(4-chloro-3-methoxyphenyl)-6-{[(1R)-1-cyclobutylethyl]amino}-7-[4-(trifluoromethyl)benzyl]-7H-purine-2-carboxylic acid] the IC50 was 26.4 nM.
`C[C@@H](Nc1nc(C(=O)O)nc2nc(-c3ccc4c(c3)OCCN4C)n(Cc3ccc(C(F)(F)F)cc3)c12)C1CCC1` [Example 1.125, 6-{[(1R)-1-cyclobutylethyl]amino}-8-(4-methyl-3,4-dihydro-2H-1,4-benzoxazin-7-yl)-7-[4-(trifluoromethyl)benzyl]-7H-purine-2-carboxylic acid] showed an IC50 of 116 nM.
Work on `Cc1cccc(-c2nc3nc(C(=O)O)nc(N[C@H](C)C4CCC4)c3n2Cc2ccc(C(F)(F)F)cc2)c1C` [Example 1.126, 6-{[(1R)-1-cyclobutylethyl]amino}-8-(2,3-dimethylphenyl)-7-[4-(trifluoromethyl)benzyl]-7H-purine-2-carboxylic acid] yielded an IC50 of 18 nM.
With `CC(C)Oc1cccc(-c2nc3nc(C(=O)O)nc(N[C@H](C)C4CCC4)c3n2Cc2ccc(C(F)(F)F)cc2)c1` [Example 1.127, 6-{[(1R)-1-cyclobutylethyl]amino}-8-[3-(1-methylethoxy)phenyl]-7-[4-(trifluoromethyl)benzyl]-7H-purine-2-carboxylic acid] the IC50 was 38.7 nM.
